Test results: ChEMBL document CHEMBL4765420, “Design, synthesis and biological evaluation of novel HDAC inhibitors with improved pharmacokinetic profile in breast cancer” (Eur J Med Chem, 2020)
Activity calls are given as the source filed them. The calls are words filed in the database; no cut-off is given here.

What was measured:
[1] = target: Histone deacetylase 3/NCoR1 (Homo sapiens, UniProt O15379); experiment: Inhibition of recombinant human GST-fused HDAC3/NCOR1 (397 to 503 residues) expressed in baculovirus infected insect cells using Ac-Leu-Gly-Lys(Ac)-AMC as substrate measured after 30 mins by fluorescence assay
Histone deacetylase 3/NCoR1, sequence (O15379 whole entry, the tested form may be a part): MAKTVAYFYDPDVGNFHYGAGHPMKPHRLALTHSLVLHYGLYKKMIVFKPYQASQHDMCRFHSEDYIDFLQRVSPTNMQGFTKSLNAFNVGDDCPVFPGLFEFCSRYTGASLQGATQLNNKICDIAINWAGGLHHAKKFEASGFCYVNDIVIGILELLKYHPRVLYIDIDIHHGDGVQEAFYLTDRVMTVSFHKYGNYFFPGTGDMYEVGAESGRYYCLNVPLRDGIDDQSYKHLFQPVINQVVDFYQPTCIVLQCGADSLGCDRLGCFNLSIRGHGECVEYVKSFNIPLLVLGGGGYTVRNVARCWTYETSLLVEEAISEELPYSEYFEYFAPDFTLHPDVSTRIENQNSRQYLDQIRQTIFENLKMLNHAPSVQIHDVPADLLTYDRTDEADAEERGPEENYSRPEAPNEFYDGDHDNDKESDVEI
Histone deacetylase 3/NCoR1, sequence (O75376 whole entry, further chain, the tested form may be a part): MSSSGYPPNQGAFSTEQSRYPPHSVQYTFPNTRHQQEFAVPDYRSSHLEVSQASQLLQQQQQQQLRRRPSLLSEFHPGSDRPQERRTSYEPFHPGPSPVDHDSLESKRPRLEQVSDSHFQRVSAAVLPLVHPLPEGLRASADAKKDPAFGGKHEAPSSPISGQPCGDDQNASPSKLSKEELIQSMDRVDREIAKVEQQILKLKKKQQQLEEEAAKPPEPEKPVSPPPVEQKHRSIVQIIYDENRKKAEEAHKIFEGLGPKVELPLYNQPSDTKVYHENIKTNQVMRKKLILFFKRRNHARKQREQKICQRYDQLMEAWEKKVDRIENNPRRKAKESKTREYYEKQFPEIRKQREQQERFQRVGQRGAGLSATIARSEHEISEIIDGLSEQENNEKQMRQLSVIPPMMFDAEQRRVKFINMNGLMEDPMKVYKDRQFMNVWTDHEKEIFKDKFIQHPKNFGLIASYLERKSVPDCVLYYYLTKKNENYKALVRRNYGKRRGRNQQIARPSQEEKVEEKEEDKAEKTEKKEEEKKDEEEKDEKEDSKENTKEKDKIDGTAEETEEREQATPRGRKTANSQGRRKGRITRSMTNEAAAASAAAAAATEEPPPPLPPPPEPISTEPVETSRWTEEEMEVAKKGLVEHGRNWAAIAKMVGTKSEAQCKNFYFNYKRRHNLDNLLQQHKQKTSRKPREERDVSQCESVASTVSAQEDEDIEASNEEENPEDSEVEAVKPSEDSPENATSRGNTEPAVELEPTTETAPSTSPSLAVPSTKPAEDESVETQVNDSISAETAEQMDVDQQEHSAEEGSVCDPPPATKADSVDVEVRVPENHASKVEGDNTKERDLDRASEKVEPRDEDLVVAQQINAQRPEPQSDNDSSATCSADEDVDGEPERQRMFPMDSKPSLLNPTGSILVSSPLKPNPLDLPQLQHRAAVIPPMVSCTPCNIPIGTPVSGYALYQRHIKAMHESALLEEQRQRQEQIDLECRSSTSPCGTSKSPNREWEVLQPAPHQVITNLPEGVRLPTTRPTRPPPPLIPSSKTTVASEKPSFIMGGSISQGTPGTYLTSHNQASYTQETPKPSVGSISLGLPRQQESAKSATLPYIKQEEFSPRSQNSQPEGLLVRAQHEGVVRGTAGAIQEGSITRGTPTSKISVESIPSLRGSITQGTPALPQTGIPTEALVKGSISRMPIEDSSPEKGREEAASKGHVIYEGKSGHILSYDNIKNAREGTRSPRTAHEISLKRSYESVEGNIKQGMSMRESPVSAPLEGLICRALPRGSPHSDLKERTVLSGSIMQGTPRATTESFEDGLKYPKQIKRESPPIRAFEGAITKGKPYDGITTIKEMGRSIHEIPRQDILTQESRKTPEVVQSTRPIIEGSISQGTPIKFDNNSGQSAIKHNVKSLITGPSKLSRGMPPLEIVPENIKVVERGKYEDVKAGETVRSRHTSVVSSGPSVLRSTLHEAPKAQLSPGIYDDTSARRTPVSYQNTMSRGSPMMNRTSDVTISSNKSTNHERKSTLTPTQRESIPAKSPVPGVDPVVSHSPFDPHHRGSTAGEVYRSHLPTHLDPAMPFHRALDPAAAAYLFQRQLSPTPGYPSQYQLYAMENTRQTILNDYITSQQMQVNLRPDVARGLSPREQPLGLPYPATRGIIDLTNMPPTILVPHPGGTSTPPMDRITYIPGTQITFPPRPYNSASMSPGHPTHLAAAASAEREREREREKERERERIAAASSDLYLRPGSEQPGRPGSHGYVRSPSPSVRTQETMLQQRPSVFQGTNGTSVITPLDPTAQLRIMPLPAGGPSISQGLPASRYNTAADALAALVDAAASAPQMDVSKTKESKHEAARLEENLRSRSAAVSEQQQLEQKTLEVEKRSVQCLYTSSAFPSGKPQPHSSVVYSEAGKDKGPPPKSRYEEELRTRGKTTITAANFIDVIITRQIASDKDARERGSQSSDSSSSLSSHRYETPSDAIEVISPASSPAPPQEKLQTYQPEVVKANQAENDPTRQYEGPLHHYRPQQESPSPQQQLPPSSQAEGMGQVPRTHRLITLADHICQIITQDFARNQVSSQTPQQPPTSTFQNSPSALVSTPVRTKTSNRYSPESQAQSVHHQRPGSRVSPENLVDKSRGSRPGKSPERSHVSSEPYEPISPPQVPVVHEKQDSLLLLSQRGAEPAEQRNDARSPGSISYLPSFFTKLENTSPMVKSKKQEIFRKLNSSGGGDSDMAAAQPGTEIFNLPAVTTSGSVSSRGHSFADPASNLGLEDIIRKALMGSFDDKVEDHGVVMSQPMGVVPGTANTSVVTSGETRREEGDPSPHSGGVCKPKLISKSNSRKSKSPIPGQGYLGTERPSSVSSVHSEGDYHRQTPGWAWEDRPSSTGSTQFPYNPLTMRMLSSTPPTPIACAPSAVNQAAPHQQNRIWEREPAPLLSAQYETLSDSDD

MDA-MB-231 [2] = experiment: Induction of apoptosis in human MDA-MB-231 cells assessed as late apoptotic cells at 5 uM measured after 24 hrs by Annexin-V/propidium iodide staining based flow cytometry (reference value: 0.71 to 2.94%); format: functional
MDA-MB-231 [3] = experiment: Induction of apoptosis in human MDA-MB-231 cells assessed as early apoptotic cells at 10 uM measured after 24 hrs by Annexin-V/propidium iodide staining based flow cytometry (reference value: 0.69 to 0.92%); format: functional
MDA-MB-231 [4] = experiment: Inhibition of cell migration in human MDA-MB-231 cells assessed as decrease in MMP2 expression at 2.5 to 10 uM measured after 24 hrs Western blot analysis; format: functional, cell-based; conditions: dose 2.5-10 µM
MDA-MB-231 [5] = experiment: Induction of apoptosis in human MDA-MB-231 cells assessed as increase in DNA fragmentation at 2.5 to 10 uM measured after 24 hrs by Hoechst 33258 staining based immunofluorescence assay; format: functional, cell-based; conditions: dose 2.5-10 µM
MDA-MB-231 [6] = experiment: Antiproliferative activity against human MDA-MB-231 cells measured after 96 hrs by MTT assay; format: functional, cell-based; conditions: MDA-MB-231, 96 h
MDA-MB-231 [7] = experiment: Induction of autophagy in human MDA-MB-231 cells assessed as decrease in SQSTM1/p62 expression at 2.5 to 10 uM measured after 24 hrs by Western blot analysis; format: functional, cell-based; conditions: dose 2.5-10 µM
MDA-MB-231 [8] = experiment: Induction of autophagy in human MDA-MB-231 cells assessed as increase in Beclin1 expression at 2.5 to 10 uM measured after 24 hrs by Western blot analysis; format: functional, cell-based; conditions: dose 2.5-10 µM
MDA-MB-231 [9] = experiment: Induction of apoptosis in human MDA-MB-231 cells assessed as down regulation of Bcl-2 expression at 2.5 to 10 uM measured after 24 hrs by Western blot analysis; format: functional, cell-based; conditions: dose 2.5-10 µM
MDA-MB-231 [10] = experiment: Induction of apoptosis in human MDA-MB-231 cells assessed as late apoptotic cells at 2.5 uM measured after 24 hrs by Annexin-V/propidium iodide staining based flow cytometry (reference value: 0.71 to 2.94%); format: functional
MDA-MB-231 [11] = experiment: Induction of apoptosis in human MDA-MB-231 cells assessed as necrotic cells at 2.5 uM measured after 24 hrs by Annexin-V/propidium iodide staining based flow cytometry (reference value: 0.22 to 0.46%); format: functional
Histone deacetylase 2 = Histone deacetylase 2 (Homo sapiens, UniProt Q92769); experiment: Inhibition of human full-length C-terminal FLAG-tagged HDAC2 expressed in baculovirus infected Sf9 insect cells using Ac-Leu-Gly-Lys(Ac)-AMC as substrate measured after 30 mins by fluorescence assay; format: cell-based
MDA-MB-231 [12] = experiment: Induction of apoptosis in human MDA-MB-231 cells assessed as necrotic cells at 5 uM measured after 24 hrs by Annexin-V/propidium iodide staining based flow cytometry (reference value: 0.22 to 0.46%); format: functional
MDA-MB-231 [13] = experiment: Inhibition of cell migration in human MDA-MB-231 cells measured after 24 hrs by phase-contrast microscopy based wound healing assay; format: functional
MDA-MB-231 [14] = experiment: Induction of apoptosis in human MDA-MB-231 cells assessed as viable cells at 10 uM measured after 24 hrs by Annexin-V/propidium iodide staining based flow cytometry (reference value: 95.68 to 98.38%); format: functional; conditions: read-out: Activity
MDA-MB-231 [15] = experiment: Antiproliferative activity against human MDA-MB-231 cells measured after 48 hrs by MTT assay; format: functional, cell-based; conditions: MDA-MB-231, 48 h
Histone deacetylase 7 = target: T1, Histone deacetylase 7 (Homo sapiens, UniProt Q8WUI4); experiment: Inhibition of HDAC7 (unknown origin) using AcLeu-Gly-Lys(Tfa)-AMC as substrate measured after 30 mins by fluorescence assay
T1 sequence (Q8WUI4 whole entry): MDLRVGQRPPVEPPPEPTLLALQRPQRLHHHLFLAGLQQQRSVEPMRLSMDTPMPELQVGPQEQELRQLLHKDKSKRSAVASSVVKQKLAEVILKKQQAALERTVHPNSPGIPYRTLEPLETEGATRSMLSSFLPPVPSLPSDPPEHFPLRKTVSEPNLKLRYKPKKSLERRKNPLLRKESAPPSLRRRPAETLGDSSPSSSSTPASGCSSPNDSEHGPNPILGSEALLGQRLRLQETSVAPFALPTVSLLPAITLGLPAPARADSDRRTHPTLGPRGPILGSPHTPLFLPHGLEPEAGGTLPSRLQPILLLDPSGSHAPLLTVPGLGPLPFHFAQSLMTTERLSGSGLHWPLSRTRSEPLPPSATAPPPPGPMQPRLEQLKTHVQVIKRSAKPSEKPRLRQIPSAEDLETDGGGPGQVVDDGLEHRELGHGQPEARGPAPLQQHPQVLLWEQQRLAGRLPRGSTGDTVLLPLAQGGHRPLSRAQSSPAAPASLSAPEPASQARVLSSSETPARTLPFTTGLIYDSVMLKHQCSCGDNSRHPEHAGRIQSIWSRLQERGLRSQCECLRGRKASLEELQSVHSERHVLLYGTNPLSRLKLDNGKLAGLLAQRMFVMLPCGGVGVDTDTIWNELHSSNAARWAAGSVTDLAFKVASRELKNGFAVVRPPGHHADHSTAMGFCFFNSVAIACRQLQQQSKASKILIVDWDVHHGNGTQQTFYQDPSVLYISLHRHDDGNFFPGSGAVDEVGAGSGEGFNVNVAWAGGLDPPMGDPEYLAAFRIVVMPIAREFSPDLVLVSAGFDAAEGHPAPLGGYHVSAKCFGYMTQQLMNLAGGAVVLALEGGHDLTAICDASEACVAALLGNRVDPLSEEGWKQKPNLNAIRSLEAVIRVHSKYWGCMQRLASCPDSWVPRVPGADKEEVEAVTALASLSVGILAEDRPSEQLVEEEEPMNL

MDA-MB-231 [16] = experiment: Induction of apoptosis in human MDA-MB-231 cells assessed as increase in cleaved caspase-3 expression at 2.5 to 10 uM measured after 24 hrs by Western blot analysis; format: functional, cell-based; conditions: dose 2.5-10 µM
Histone deacetylase 4 = Histone deacetylase 4 (Homo sapiens, UniProt P56524); experiment: Inhibition of recombinant human N-terminal GST-tagged HDAC4 (627 to end residues) expressed in baculovirus infected Sf9 insect cells using AcLeu-Gly-Lys(Tfa)-AMC as substrate measured after 30 mins by fluorescence assay
Histone deacetylase 4, sequence (P56524 whole entry): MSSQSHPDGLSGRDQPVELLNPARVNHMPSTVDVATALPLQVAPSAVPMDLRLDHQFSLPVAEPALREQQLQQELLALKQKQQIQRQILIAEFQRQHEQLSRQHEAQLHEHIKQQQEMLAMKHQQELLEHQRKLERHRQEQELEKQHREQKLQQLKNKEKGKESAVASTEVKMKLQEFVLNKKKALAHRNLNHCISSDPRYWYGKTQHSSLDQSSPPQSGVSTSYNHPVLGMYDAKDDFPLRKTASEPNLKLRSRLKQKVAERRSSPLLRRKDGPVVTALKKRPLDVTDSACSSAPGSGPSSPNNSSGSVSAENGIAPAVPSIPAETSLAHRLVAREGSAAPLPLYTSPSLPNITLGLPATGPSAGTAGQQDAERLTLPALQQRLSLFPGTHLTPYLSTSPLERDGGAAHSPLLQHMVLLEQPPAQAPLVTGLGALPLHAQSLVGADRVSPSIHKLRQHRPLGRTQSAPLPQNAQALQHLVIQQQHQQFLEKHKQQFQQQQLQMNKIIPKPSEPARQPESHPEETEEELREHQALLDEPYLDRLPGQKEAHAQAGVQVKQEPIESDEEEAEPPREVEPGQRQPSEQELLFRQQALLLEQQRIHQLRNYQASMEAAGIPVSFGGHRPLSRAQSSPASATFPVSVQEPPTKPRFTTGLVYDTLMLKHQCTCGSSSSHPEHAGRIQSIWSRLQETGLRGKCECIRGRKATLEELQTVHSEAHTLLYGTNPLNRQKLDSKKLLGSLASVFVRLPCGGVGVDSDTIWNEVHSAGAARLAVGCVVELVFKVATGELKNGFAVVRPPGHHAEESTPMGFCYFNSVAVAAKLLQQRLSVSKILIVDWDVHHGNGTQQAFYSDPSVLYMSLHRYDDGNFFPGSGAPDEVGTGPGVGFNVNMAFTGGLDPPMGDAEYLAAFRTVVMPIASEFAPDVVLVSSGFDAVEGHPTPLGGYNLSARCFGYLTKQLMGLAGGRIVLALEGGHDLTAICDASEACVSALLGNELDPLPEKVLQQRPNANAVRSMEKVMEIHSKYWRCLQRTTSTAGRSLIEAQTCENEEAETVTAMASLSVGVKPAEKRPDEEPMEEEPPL

MDA-MB-231 [17] = experiment: Induction of apoptosis in human MDA-MB-231 cells assessed as viable cells at 5 uM measured after 24 hrs by Annexin-V/propidium iodide staining based flow cytometry (reference value: 95.68 to 98.38%); format: functional; conditions: read-out: Activity
MDA-MB-231 [18] = experiment: Induction of apoptosis in human MDA-MB-231 cells assessed as up regulation of Bax expression at 2.5 to 10 uM measured after 24 hrs by Western blot analysis; format: functional, cell-based; conditions: dose 2.5-10 µM
Histone deacetylase 5 = Histone deacetylase 5 (Homo sapiens, UniProt Q9UQL6); experiment: Inhibition of recombinant human full-length N-terminal GST-tagged HDAC5 expressed in baculovirus infected Sf9 insect cells using AcLeu-Gly-Lys(Tfa)-AMC as substrate measured after 30 mins by fluorescence assay
Histone deacetylase 5, sequence (Q9UQL6 whole entry): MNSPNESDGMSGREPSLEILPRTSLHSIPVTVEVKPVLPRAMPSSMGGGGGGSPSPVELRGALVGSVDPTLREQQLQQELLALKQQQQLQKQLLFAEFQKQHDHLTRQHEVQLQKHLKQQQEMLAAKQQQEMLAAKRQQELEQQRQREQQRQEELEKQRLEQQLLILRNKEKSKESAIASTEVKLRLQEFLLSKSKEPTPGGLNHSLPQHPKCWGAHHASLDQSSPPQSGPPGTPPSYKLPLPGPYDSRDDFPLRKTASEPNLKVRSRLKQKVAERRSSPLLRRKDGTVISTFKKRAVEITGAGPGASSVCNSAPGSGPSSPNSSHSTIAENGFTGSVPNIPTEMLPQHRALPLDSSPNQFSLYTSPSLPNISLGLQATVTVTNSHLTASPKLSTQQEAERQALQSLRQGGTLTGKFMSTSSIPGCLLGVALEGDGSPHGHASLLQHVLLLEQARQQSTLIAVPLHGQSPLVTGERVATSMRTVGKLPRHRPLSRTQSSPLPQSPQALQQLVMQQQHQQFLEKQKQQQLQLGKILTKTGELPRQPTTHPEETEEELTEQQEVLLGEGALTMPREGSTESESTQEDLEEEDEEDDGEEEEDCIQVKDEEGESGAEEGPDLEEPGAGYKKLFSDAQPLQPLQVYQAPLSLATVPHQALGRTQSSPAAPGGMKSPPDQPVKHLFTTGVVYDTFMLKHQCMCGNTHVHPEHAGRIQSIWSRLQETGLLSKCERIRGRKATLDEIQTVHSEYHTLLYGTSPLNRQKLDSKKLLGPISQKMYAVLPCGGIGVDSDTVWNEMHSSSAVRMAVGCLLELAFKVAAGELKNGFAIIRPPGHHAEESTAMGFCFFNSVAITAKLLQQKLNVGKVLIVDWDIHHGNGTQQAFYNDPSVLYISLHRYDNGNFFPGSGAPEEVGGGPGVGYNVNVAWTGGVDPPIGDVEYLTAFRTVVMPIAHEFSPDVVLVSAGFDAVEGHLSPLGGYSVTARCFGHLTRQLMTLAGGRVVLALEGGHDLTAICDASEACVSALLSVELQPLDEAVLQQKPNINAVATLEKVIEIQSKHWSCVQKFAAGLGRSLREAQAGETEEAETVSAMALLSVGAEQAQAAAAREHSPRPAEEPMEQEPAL

MDA-MB-231 [19] = experiment: Antiproliferative activity against human MDA-MB-231 cells measured after 72 hrs by MTT assay; format: functional, cell-based; conditions: MDA-MB-231, 72 h

IC50 [1]: 106 nM
IC50 (MDA-MB-231 [6]): 1340 nM
IC50 (Histone deacetylase 2): 136 nM
IC50 (MDA-MB-231 [15]): 1520 nM
IC50 (Histone deacetylase 7): > 1000 nM
IC50 (Histone deacetylase 4): > 1000 nM
IC50 (Histone deacetylase 5): 688 nM
IC50 (MDA-MB-231 [19]): 898 nM
Structure (SMILES): COc1cc(OC)c2c(N3CCS(=O)(=O)CC3)nc(-c3cc(C)c(OCCCCCC(=O)NO)c(C)c3)nc2c1
Activity (MDA-MB-231 [2]): 11.79%
Activity (MDA-MB-231 [3]): 38.66%
Activity (MDA-MB-231 [4]): Active
Activity (MDA-MB-231 [5]): Active
Activity (MDA-MB-231 [7]): Active
Activity (MDA-MB-231 [8]): Active
Activity (MDA-MB-231 [9]): Active
Activity (MDA-MB-231 [10]): 3.01%
Activity (MDA-MB-231 [11]): 1.05%
Activity (MDA-MB-231 [12]): 0.41%
inhibition (MDA-MB-231 [13]): Dose-dependent effect
viability at 10 µM (MDA-MB-231 [14]): 25.6%
Activity (MDA-MB-231 [16]): Active
viability at 5 µM (MDA-MB-231 [17]): 71.5%
Activity (MDA-MB-231 [18]): Active
